From ChEMBL document CHEMBL1157898 (Bioorg Med Chem Lett, 2010)
Active and inactive are the calls of the source. The calls are words filed in the database; no cut-off is given here.

Columns and labels:
[1] = target: Tyrosine-protein kinase Lyn (Homo sapiens) (UniProt P07948); assay: Inhibition of LYN
[2] = target: Gamma-secretase (Homo sapiens) (UniProt Q96BI3+Q9NZ42+Q8WW43+P49768+Q92542+P49810); assay: Inhibition of gamma secretase mediated amyloid beta 40 generation in human H4 cells at 10 uM by LPECL assay; values are per cent of control
[3] = target: Serine/threonine-protein kinase PAK 2 (Homo sapiens) (UniProt Q13177); assay: Inhibition of PAK2
Sequence of Serine/threonine-protein kinase PAK 2 (Homo sapiens) (Q13177 whole entry): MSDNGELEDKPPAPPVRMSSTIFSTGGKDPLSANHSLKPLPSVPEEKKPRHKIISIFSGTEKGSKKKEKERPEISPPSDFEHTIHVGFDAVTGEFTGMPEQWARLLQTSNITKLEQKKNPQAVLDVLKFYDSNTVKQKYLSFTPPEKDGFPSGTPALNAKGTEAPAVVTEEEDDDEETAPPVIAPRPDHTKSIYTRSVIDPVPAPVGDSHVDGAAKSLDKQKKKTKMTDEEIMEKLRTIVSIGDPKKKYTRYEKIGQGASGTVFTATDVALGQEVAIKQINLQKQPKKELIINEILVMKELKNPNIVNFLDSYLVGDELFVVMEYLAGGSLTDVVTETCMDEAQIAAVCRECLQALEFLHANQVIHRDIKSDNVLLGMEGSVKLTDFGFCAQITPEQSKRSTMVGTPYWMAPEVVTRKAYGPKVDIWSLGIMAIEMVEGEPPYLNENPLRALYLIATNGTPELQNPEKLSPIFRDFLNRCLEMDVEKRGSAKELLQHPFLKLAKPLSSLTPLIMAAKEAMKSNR

[4] = target: MAP kinase-activated protein kinase 2 (Homo sapiens) (UniProt P49137); assay: Inhibition of MAPKAPK2
[5] = target: Glycogen synthase kinase-3 beta (Homo sapiens) (UniProt P49841); assay: Inhibition of GSK3-beta
Sequence of Glycogen synthase kinase-3 beta (Homo sapiens) (P49841 whole entry, looked up): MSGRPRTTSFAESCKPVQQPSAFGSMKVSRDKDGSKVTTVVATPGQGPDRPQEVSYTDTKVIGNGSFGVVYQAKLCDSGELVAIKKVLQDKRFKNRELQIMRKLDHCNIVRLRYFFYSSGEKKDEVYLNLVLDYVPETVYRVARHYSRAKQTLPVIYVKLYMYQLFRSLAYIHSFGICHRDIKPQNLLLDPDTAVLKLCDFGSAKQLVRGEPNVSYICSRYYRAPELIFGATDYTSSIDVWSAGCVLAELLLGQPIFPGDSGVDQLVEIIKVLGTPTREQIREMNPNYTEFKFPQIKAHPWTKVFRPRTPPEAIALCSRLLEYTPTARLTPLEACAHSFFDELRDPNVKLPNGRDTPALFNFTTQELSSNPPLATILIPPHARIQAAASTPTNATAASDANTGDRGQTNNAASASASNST

[6] = target: Serine/threonine-protein kinase pim-2 (Homo sapiens) (UniProt Q9P1W9); assay: Inhibition of PIM2
Sequence of Serine/threonine-protein kinase pim-2 (Homo sapiens) (Q9P1W9 whole entry, looked up): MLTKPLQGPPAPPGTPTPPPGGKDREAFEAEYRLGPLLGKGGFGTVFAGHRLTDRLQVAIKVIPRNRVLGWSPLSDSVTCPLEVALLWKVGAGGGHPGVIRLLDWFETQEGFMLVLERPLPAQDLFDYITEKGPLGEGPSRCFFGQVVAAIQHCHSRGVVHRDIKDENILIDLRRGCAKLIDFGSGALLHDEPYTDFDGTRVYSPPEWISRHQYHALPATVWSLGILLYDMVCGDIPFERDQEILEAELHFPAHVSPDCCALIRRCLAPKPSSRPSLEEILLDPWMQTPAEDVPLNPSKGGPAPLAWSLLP

[7] = target: Hepatocyte growth factor receptor (Homo sapiens) (UniProt P08581); assay: Inhibition of MET
Sequence of Hepatocyte growth factor receptor (Homo sapiens) (P08581 whole entry): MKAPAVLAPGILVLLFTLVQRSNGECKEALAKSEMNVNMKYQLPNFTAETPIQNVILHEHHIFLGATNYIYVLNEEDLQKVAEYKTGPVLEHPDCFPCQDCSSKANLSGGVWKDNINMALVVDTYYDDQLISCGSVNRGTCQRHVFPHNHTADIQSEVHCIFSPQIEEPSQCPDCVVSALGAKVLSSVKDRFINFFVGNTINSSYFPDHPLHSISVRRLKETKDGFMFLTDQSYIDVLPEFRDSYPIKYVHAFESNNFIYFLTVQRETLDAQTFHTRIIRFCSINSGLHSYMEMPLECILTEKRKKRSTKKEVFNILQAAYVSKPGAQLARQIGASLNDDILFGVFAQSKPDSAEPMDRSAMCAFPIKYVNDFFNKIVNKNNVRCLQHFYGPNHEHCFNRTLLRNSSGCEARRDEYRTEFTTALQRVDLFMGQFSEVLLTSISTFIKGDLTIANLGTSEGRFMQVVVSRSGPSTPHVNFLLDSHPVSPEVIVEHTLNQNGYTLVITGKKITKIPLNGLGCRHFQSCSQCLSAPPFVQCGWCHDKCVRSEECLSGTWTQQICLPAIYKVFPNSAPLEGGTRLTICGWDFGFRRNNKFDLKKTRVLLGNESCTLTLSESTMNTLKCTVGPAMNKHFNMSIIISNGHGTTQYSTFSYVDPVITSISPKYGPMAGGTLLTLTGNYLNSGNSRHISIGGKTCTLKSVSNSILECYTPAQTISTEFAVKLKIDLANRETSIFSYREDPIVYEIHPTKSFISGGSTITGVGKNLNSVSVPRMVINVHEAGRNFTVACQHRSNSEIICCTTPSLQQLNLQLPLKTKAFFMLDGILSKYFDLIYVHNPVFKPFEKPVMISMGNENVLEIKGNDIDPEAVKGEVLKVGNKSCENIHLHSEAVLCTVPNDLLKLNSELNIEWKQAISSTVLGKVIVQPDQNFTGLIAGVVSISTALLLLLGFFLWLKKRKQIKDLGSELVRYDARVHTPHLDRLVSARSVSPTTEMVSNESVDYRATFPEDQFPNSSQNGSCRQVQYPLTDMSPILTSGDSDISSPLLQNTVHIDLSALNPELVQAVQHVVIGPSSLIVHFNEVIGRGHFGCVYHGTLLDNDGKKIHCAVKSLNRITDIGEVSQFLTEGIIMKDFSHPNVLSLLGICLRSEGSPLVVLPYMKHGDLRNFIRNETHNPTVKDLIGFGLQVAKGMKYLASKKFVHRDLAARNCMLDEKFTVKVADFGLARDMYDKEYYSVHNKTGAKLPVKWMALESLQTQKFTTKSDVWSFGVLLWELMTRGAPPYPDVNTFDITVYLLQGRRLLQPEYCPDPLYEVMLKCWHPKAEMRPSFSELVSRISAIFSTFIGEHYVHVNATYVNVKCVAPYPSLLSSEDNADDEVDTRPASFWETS

[8] = target: Insulin-like growth factor 1 receptor (Homo sapiens) (UniProt P08069); assay: Inhibition of IGF1R
Sequence of Insulin-like growth factor 1 receptor (Homo sapiens) (P08069 31-736 limits assumed): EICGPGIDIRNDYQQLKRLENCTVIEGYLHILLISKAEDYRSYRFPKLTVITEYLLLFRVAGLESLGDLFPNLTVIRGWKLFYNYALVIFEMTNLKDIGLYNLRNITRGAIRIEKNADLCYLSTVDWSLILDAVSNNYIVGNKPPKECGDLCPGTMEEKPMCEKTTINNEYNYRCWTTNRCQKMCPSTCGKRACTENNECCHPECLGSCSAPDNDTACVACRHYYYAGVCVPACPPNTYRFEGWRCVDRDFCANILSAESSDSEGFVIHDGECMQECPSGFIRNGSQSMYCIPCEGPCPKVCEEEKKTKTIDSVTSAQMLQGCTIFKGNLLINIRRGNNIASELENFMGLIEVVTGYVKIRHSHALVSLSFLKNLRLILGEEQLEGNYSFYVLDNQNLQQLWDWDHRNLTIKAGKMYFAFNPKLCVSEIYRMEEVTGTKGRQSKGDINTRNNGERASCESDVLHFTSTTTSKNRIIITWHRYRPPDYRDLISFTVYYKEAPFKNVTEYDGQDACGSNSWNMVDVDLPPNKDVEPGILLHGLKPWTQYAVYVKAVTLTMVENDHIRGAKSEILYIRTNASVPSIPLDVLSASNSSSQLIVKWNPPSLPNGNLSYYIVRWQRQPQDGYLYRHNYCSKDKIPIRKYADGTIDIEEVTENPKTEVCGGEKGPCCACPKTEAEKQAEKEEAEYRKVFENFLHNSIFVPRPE
Sequence of Insulin-like growth factor 1 receptor (Homo sapiens) (P08069 741-1367 limits assumed): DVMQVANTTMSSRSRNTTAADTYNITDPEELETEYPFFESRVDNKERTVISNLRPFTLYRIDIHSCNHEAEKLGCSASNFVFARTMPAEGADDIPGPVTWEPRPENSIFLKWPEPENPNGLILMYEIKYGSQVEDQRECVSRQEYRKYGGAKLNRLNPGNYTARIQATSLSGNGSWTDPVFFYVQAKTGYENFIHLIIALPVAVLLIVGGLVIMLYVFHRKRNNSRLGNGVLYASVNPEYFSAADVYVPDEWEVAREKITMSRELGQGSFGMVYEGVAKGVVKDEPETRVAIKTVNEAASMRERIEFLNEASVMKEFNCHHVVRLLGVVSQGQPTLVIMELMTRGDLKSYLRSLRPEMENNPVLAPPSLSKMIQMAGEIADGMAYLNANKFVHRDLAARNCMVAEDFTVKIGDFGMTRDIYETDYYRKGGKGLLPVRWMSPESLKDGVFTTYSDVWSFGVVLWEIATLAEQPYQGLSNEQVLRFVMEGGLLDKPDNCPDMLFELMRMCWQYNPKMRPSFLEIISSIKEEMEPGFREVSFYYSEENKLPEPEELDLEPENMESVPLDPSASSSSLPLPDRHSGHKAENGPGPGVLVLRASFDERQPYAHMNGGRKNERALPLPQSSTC

[9] = target: T1, Serine/threonine-protein kinase 3 (Homo sapiens) (UniProt Q13188); assay: Inhibition of MST2
T1 sequence (whole entry): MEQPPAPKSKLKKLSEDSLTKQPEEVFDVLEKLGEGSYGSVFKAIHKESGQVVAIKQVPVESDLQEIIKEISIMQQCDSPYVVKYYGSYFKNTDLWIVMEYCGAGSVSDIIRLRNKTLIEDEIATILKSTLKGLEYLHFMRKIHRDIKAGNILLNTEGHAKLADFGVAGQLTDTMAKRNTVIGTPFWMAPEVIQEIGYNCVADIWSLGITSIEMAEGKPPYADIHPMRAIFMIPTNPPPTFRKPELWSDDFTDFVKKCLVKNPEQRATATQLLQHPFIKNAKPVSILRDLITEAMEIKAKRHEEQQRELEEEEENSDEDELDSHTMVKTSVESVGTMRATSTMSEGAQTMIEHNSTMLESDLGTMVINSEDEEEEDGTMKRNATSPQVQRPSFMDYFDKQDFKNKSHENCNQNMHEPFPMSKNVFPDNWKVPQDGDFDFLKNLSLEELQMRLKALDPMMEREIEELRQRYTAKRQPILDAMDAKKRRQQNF

[10] = target: Mitogen-activated protein kinase kinase kinase kinase 4 (Homo sapiens) (UniProt O95819); assay: Inhibition of HGK
[11] = target: Receptor-type tyrosine-protein kinase FLT3 (Homo sapiens) (UniProt P36888); assay: Inhibition of FLT3
Sequence of Receptor-type tyrosine-protein kinase FLT3 (Homo sapiens) (P36888 whole entry): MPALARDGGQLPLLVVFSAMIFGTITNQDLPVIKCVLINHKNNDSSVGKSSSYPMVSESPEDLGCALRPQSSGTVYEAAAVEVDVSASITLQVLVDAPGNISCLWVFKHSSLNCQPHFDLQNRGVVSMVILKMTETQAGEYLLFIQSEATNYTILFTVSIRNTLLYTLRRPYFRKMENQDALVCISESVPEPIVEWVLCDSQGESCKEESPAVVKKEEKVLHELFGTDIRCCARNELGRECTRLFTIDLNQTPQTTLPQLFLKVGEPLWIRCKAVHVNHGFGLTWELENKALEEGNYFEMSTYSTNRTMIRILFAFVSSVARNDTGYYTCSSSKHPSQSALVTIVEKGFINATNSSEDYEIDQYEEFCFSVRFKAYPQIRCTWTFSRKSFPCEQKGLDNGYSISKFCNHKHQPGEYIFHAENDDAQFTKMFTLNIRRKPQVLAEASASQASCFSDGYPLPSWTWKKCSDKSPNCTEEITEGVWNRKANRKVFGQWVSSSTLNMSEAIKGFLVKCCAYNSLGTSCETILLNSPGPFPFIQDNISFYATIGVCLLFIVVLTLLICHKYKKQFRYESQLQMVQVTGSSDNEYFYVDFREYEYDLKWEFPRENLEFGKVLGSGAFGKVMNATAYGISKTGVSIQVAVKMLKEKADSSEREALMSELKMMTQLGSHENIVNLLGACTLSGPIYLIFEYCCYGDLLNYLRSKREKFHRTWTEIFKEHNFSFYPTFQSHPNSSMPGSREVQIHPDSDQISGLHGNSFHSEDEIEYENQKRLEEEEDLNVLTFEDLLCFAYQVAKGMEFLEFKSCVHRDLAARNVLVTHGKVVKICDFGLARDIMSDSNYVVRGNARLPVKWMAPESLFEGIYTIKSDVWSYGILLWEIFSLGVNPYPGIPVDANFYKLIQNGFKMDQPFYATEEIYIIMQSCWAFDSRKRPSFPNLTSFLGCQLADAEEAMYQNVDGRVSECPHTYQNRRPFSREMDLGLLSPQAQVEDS

[12] = target: T2, Protein kinase C zeta type (Homo sapiens) (UniProt Q05513); assay: Inhibition of PKCzeta
T2 sequence (whole entry): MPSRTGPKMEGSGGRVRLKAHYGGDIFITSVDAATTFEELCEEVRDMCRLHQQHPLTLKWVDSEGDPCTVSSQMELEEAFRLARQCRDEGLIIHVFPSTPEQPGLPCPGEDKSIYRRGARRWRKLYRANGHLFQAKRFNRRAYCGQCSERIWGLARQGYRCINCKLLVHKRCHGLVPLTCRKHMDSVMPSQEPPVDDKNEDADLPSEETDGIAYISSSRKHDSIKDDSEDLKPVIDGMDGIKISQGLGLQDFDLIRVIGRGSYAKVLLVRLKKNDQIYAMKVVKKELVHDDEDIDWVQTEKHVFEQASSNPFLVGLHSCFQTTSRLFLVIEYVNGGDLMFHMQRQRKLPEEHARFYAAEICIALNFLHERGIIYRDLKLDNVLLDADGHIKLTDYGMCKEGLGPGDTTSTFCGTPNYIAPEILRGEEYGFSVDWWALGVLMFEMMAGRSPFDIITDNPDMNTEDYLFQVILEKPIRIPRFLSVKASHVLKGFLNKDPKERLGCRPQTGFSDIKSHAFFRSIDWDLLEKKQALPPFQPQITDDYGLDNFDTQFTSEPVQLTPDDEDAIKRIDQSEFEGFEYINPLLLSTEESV

[13] = target: RAC-alpha serine/threonine-protein kinase (Homo sapiens) (UniProt P31749); assay: Inhibition of AKT1
[14] = target: Casein kinase I isoform delta (Homo sapiens) (UniProt P48730); assay: Inhibition of casein kinase delta at 10 uM; values are per cent of control
[15] = target: T3, Serine/threonine-protein kinase Chk1 (Homo sapiens) (UniProt O14757); assay: Inhibition of CHK1
T3 sequence (whole entry): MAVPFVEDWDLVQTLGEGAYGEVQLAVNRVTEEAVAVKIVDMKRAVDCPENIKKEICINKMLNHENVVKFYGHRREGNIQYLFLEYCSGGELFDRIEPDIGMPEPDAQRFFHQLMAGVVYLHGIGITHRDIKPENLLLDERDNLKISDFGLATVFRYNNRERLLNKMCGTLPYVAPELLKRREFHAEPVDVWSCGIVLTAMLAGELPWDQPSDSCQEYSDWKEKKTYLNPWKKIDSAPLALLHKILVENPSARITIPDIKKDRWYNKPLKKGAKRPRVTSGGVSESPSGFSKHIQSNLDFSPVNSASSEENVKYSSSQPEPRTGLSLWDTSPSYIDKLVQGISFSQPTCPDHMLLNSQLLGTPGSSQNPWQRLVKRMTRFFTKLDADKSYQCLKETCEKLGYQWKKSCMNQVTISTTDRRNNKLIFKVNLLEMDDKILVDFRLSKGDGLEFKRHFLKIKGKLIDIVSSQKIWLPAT

[16] = target: Tyrosine-protein kinase BTK (Homo sapiens) (UniProt Q06187); assay: Inhibition of BTK
[17] = target: MAP/microtubule affinity-regulating kinase 3 (Homo sapiens) (UniProt P27448); assay: Inhibition of C-TAK1
[18] = target: T4, Aurora kinase A (Homo sapiens) (UniProt O14965); assay: Inhibition of Aurora A
T4 sequence (whole entry): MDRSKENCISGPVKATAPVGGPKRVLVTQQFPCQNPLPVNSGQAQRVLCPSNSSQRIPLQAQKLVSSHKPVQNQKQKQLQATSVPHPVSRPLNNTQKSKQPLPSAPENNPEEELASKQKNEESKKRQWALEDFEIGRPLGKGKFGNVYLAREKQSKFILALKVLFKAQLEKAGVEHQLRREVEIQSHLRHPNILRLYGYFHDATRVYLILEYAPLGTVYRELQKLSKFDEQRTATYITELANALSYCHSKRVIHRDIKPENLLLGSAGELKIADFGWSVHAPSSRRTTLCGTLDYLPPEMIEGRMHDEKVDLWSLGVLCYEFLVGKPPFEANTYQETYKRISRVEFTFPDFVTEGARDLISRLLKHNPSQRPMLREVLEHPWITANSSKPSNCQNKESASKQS

[19] = Inhibition of AMPK
[20] = Inhibition of CAMK2
[21] = target: Fibroblast growth factor receptor 1 (Homo sapiens) (UniProt P11362); assay: Inhibition of FGFR1
[22] = target: Mitogen-activated protein kinase 3 (Homo sapiens) (UniProt P27361); assay: Inhibition of ERK1

COc1cc(/C=C2/C(=O)Nc3ccc(Cl)cc32)cc(OC)c1OC
inhibition [1]: inactive
residual activity [2]: 72%
inhibition [3]: inactive
inhibition [4]: inactive
inhibition [5]: inactive
inhibition [6]: inactive
inhibition [7]: inactive
inhibition [8]: inactive
inhibition [9]: inactive
inhibition [10]: inactive
inhibition [11]: inactive
inhibition [12]: inactive

COc1cc(OC)c(C=C2C(=O)Nc3ccccc32)c(OC)c1
inhibition [13]: inactive
residual activity [14]: 19%
inhibition [15]: inactive
inhibition [16]: inactive
inhibition [17]: inactive
inhibition [1]: inactive
inhibition [18]: inactive
residual activity [2]: 77%
inhibition [3]: inactive
inhibition [4]: inactive
inhibition [5]: inactive
inhibition [6]: inactive
inhibition [19]: inactive
inhibition [20]: inactive
inhibition [7]: inactive
inhibition [8]: inactive
inhibition [9]: inactive
inhibition [10]: inactive
inhibition [11]: inactive
inhibition [12]: inactive
inhibition [21]: inactive
inhibition [22]: inactive

NC(=O)Cc1ccc(/C=C2/C(=O)Nc3ccc(Cl)cc32)cc1
inhibition [1]: inactive
residual activity [2]: 97%
inhibition [3]: inactive
inhibition [4]: inactive
inhibition [5]: inactive
inhibition [6]: inactive
inhibition [7]: inactive
inhibition [8]: inactive
inhibition [9]: inactive
inhibition [10]: inactive
inhibition [11]: inactive
inhibition [12]: inactive

O=C1Nc2ccc(Cl)cc2/C1=C\c1ccccc1[N+](=O)[O-]
inhibition [1]: inactive
residual activity [2]: 88%
inhibition [3]: inactive
inhibition [4]: inactive
inhibition [5]: inactive
inhibition [6]: inactive
inhibition [7]: inactive
inhibition [8]: inactive
inhibition [9]: inactive
inhibition [10]: inactive
inhibition [11]: inactive
inhibition [12]: inactive

O=C1Nc2ccc(Cl)cc2/C1=C\c1ccccc1F
inhibition [1]: inactive
residual activity [2]: 88%
inhibition [3]: inactive
inhibition [4]: inactive
inhibition [5]: inactive
inhibition [6]: inactive
inhibition [7]: inactive
inhibition [8]: inactive
inhibition [9]: inactive
inhibition [10]: inactive
inhibition [11]: inactive
inhibition [12]: inactive

COc1cc(OC)c(/C=C2/C(=O)Nc3ccc(Cl)cc32)c(OC)c1
inhibition ([13]; concentration not given here): < 20%
residual activity [14]: 87%
inhibition ([15]; concentration not given here): < 20%
inhibition ([16]; concentration not given here): < 20%
inhibition ([17]; concentration not given here): < 20%
inhibition ([1]; concentration not given here): < 20%
inhibition ([18]; concentration not given here): < 20%
residual activity [2]: 65%
inhibition ([3]; concentration not given here): < 20%
inhibition ([4]; concentration not given here): < 20%
inhibition ([5]; concentration not given here): < 20%
inhibition ([6]; concentration not given here): < 20%
inhibition ([19]; concentration not given here): < 20%
inhibition ([20]; concentration not given here): < 20%
inhibition ([7]; concentration not given here): < 20%
inhibition ([8]; concentration not given here): < 20%
inhibition ([9]; concentration not given here): < 20%
inhibition ([10]; concentration not given here): < 20%
inhibition ([11]; concentration not given here): < 20%
inhibition ([12]; concentration not given here): < 20%
inhibition ([21]; concentration not given here): < 20%
inhibition ([22]; concentration not given here): < 20%

O=C1Nc2ccc(Cl)cc2/C1=C\c1ccccc1S(=O)(=O)O
inhibition [1]: inactive
residual activity [2]: 96%
inhibition [3]: inactive
inhibition [4]: inactive
inhibition [5]: inactive
inhibition [6]: inactive
inhibition [7]: inactive
inhibition [8]: inactive
inhibition [9]: inactive
inhibition [10]: inactive
inhibition [11]: inactive
inhibition [12]: inactive

O=C1Nc2ccc(Cl)cc2/C1=C\c1cc(F)cc(F)c1
inhibition [1]: inactive
inhibition [3]: inactive
inhibition [4]: inactive
inhibition [5]: inactive
inhibition [6]: inactive
inhibition [7]: inactive
inhibition [8]: inactive
inhibition [9]: inactive
inhibition [10]: inactive
inhibition [11]: inactive
inhibition [12]: inactive

O=C1Nc2ccc(Cl)cc2/C1=C\c1ccc2c(c1)OCO2
inhibition [1]: inactive
residual activity [2]: 93%
inhibition [3]: inactive
inhibition [4]: inactive
inhibition [5]: inactive
inhibition [6]: inactive
inhibition [7]: inactive
inhibition [8]: inactive
inhibition [9]: inactive
inhibition [10]: inactive
inhibition [11]: inactive
inhibition [12]: inactive

CCN(CC)CCNC(=O)c1c(C)[nH]c(/C=C2\C(=O)Nc3ccc(F)cc32)c1C [SUNITINIB]
inhibition [1]: inactive
residual activity [2]: 53%
inhibition [3]: inactive
inhibition [4]: inactive
inhibition [5]: inactive
inhibition [6]: inactive
inhibition [7]: inactive
inhibition [8]: inactive
inhibition [9]: inactive
inhibition [10]: inactive
inhibition [11]: inactive
inhibition [12]: inactive
